# Patent publication US20250051260A1, “METHOD FOR PREPARING 4-NITRO-2-(TRIFLUOROMETHYL)ACETOPHENONE AND APPLICATION THEREOF” (MAXUNITECH INC., priority 2022, published 2025)
# Key:
# Experiment in all cases: Petri dish test for herbicide bioactivity (NY/T 1155.1-2006)
# Assay type in all cases: in vivo
# Conditions in all cases: 7 days after treatment
# [1] = tested on: Panicum acroanthum Steud.
# From the text: (§1) Test standard:NY/T 1155.1-2006 Pesticides guidelines for laboratory bioactivity tests. Part 1:Petri dish test for herbicide bioactivity
# (§2) Targets: Echinochloa crusgalli (L.) Beauv, Panicum acroanthum Steud., Solanum nigrum L., Chenopodium album L.
# (§3) Test agent:ethyl 2-(4-nitro-2-trifluoromethylphenyl)-2-cyanopropanoate prepared in Example 1
# (§4) The test agent was weighed and dissolved in DMF to obtain a mother liquor. different amounts of mother liquor were weighed and diluted into water to prepare different doses of the test agent.
# (§5) Test method:Petri dish test
# (§6) 1 test agent, 1 CK (clean water control), 4 targets, and 2 replicate tests per treatment were required. Test method includes the following steps:putting two filter papers on a Petri dish with a diameter of 9 cm; adding 8 mL of the prepared test agent of different concentrations; putting 10 uniform weed seeds; and then placing in an incubator (30° C./25° C., light for 12 h/for dark 12 h). After treatment, the growth state of the test target was regularly observed, the comprehensive growth inhibition rate of each agent was visually investigated with CK about 7 days after the treatment, and the number of seedlings, stem length and root length of plants were measured, and the mergence rate, stem length, and root length and inhibition rate were calculated compared with CK.
# [2] = tested on: Solanum nigrum L.
# From the text: as §1, §2, §3, §4, §5, §6
# [3] = tested on: Chenopodium album L.
# From the text: as §1, §2, §3, §4, §5, §6
# [4] = tested on: Echinochloa crusgalli (L.) Beauv
# From the text: as §1, §2, §3, §4, §5, §6
compound,measurement,setting,value
CCOC(=O)C(C)(C#N)c1ccc([N+](=O)[O-])cc1C(F)(F)F (stereo not drawn) [ethyl 2-(4-nitro-2-trifluoromethylphenyl)-2-cyanopropanoate],"Emergence rate, inhibition rate",[1]; agent concentration 500,100.0%
same,"Root length, inhibition rate",[1]; agent concentration 500,100.0%
same,"Stem length, inhibition rate",[1]; agent concentration 500,100.0%
same,"Emergence rate, inhibition rate",[1]; agent concentration 1000,100.0%
same,"Root length, inhibition rate",[1]; agent concentration 1000,100.0%
same,"Stem length, inhibition rate",[1]; agent concentration 1000,100.0%
same,"Emergence rate, inhibition rate",[2]; agent concentration 500,100.0%
same,"Root length, inhibition rate",[2]; agent concentration 500,100.0%
same,"Stem length, inhibition rate",[2]; agent concentration 500,100.0%
same,"Emergence rate, inhibition rate",[2]; agent concentration 1000,100.0%
same,"Root length, inhibition rate",[2]; agent concentration 1000,100.0%
same,"Stem length, inhibition rate",[2]; agent concentration 1000,100.0%
same,"Emergence rate, inhibition rate",[3]; agent concentration 100,63.6%
same,"Root length, inhibition rate",[3]; agent concentration 100,100.0%
same,"Stem length, inhibition rate",[3]; agent concentration 100,70.4%
same,"Emergence rate, inhibition rate",[3]; agent concentration 500,100.0%
same,"Root length, inhibition rate",[3]; agent concentration 500,100.0%
same,"Stem length, inhibition rate",[3]; agent concentration 500,100.0%
same,"Emergence rate, inhibition rate",[3]; agent concentration 1000,100.0%
same,"Root length, inhibition rate",[3]; agent concentration 1000,100.0%
same,"Stem length, inhibition rate",[3]; agent concentration 1000,100.0%
same,"Emergence rate, inhibition rate",[4]; agent concentration 500,100.0%
same,"Root length, inhibition rate",[4]; agent concentration 500,100.0%
same,"Stem length, inhibition rate",[4]; agent concentration 500,100.0%
same,"Emergence rate, inhibition rate",[4]; agent concentration 1000,100.0%
same,"Root length, inhibition rate",[4]; agent concentration 1000,100.0%
same,"Stem length, inhibition rate",[4]; agent concentration 1000,100.0%
